# Source: patent US10287328B2, “Treatment of diabetes, toll-like receptor 4 modulators and methods for using the same” (KeMyth Biotech Co., Ltd., priority 2016, dated 2019)
# Assays:
# [1] = Body weight in C57BL/KsJ-db/db diabetic mice; type: in vivo; conditions: 2 mg/kg/3 days i.p. for 30 days, compared with control group, after week 2
# Procedure: Male C57BL/KsJ-db/db mice (diabetic deficiency knockout mice) at 5 weeks of age (23 g) were fed a pelletized commercial chow diet for acclimation from the arrival for 2 weeks. […]. They were given free access to food and distilled water, and the food consumption and body weight gain were measured daily and weekly, respectively. […]; and (2) group 2 served as diabetic mice administered C70PLY4 (2 mg/kg/3 days) in aqueous suspension i.p. for 30 days (C70PLY4). […] The blood was centrifuged at 1000 g for 15 min at 4° C., and plasma and erythrocyte were separated. The livers and adipose tissues were removed, washed, weighted, and frozen at −70° C. until analyzed.
# [2] = tested on: HUVEC; conditions: treated for 1, 4 and 7 hours (FIG. 16)
# [3] = target: MD2/TLR4 interaction (Homo sapiens, UniProt O00206); test: In vitro protein competition binding assay for MD2/TLR4 interaction; conditions: MD2 50 nM
# Sequence of MD2/TLR4 interaction (O00206 24-631): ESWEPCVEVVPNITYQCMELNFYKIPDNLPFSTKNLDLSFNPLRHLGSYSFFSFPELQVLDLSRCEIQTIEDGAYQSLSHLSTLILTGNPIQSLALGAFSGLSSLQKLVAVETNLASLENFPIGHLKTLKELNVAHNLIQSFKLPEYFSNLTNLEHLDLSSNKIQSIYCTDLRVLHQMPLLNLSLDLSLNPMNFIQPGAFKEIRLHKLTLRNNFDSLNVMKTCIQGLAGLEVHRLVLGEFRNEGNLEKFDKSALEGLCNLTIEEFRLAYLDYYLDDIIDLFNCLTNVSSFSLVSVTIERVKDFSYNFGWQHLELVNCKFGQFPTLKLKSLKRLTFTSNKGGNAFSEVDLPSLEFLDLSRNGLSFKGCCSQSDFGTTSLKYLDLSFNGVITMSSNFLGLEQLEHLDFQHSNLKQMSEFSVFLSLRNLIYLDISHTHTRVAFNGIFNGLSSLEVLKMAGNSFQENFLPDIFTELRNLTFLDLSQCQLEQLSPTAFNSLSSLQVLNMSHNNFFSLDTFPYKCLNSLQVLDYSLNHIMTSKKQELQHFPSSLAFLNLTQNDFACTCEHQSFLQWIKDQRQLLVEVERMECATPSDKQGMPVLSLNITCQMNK
# Procedure: The recombinant TLR4 protein was diluted in PBS (2 μg/mL) and immobilized on a 96-well (100 ng/well) ELISA plate by incubation at 37° C. for 2 h. The wells were washed three times with PBS, followed by blocking with the addition of 300 μL 5% BSA in PBS at ambient temperature overnight. Then, the plate was rewashed three times with PBST before performed competition binding assay. The binding of MD2 (50 nM) to TLR4 was competed by adding various amounts (2-fold serial dilution from 50 μM to 3.05 nM) of C70PLY4, N35PLY4, or M50PLY4 peptide, and the residual binding was examined using anti-MD2 and anti-mouse-IgG-HRP antibodies diluted in 1% BSA as described in herein.
# [4] = tested on: TLR4; test: LPS-induced PMN transendothelial migration, PMNs from wild type C3H/HeN mice; type: cell-based
# Procedure: (§1) To obtain mice neutrophils from TLR4-deficient [TLR4(−/−)] C3H/HeJ mice and wild type C3H/HeN mice, inflammation was induced by 0.1 ml of uric acid solution into the peritoneal cavity of the mouse. The uric acid solution (noncrystalline form) was prepared by mixing with saline (10% [wt/vol]) and sonicated for 10 min. Immediately before inoculation, the milky white precipitated uric acid solution was shaken vigorously. Peritoneal exudate cells were harvested 4, 18, or 24 h after injection by two lavages of the peritoneal cavity with 5 ml of cold phosphate-buffered saline (PBS; total volume, 10 ml). Uric acid-induced peritoneal cells (UAPMN) were washed by centrifugation at 200×g for 10 min at 4° C. Followed by hypotonic lysis to eliminate red blood cells, centrifugation and an additional wash were performed. The cells were then resuspended in Krebs-Ringer phosphate buffer (KRG; pH 7.3). The numbers and populations of peritoneal exudate cells were determined by staining the nuclei with Turk reagent and by cytospin centrifugation followed by May-Grünwald-Giemsa staining, respectively. Uric acid injection into the peritoneal cavity gave a yield of 1 to 2×10^7 cells/mouse depending on time of incubation (4 hr). The levels of purity of the uric acid-induced PMN were 95% after 4 h postinjection. Viability of the isolated neutrophils exceeded 95% as determined by trypan blue exclusion. The PMN from TLR4(−/−) C3H/HeJ mice and wild type C3H/HeN mice were then used for PMN transmigration Assay.
# Neutrophils from human were isolated blood that was drawn in a syringe containing preservative-free heparin (20 U/ml final), and mixed with an equal volume of PBS containing 3% dextran and then incubated for 20 min at room temperature. The leukocyte-rich plasma (upper layer) was collected and pellet cells was obtained from the plasma by centrifuge and resuspended in 0.9% NaCl. Layer 10 ml Ficoll-Hypaque solution beneath the cell suspension. After centrifuge 1500×g for 20 min, aspirate the Ficoll-Hypaque layer, leaving the neutrophil/RBC pellet. Cells were subjected to hypotonic lysis by resuspending each neutrophil/RBC pellet in cold 0.2% NaCl for 30 sec. At the end of this period, restore isotonicity by adding ice-cold 1.6% NaCl. After centrifuge, resuspend cells in ice-cold PBS/glucose buffer. Neutrophils from mice were isolated from the peritoneum as previously described. See, e.g., Rabes et al., Curr Top Microbiol Immunol 397:215-227 (2016). The cell concentration was adjusted to […]. The viability of the isolated neutrophils exceeded 95%, as determined by Trypan blue exclusion.
# Transendothelial migration was performed by using a Transwell system. Transwell filters were pre-seeded with HUVEC monolayers for 24 hrs and transferred to clean 24-well plates. HUVECs were washed twice with DPBS, 500 μl of ECM was added to the Transwell filter compartment and 10^6 neutrophils were then added in upper chamber. Transendothelial migration was stimulated by addition of LPS to the lower chamber to a final concentration of 1 μg/ml. Cells were incubated with the endothelial cells for 1 h at 37° C. At the conclusion of the incubation, migrated cells were collected from the lower chamber and counted in a hemacytometer in triplicate. Percent PMN transmigration was calculated by dividing the number of PMN recovered from the lower chamber by the number of PMN initially added.
# PMN transendothelial migration plays an important role in early stage of atherogenesis. […].
# [5] = tested on: caspase-3 activity in HUVECs; type: cell-based, human; conditions: compared to control cells
# Procedure: Cell apoptosis was detected by using commercial terminal deoxynucleotidyl transferase-dUTP nick end labeling (TUNEL) and caspase-3 activity kits, i.e., Apo-BrdU in Situ DNA Fragmentation Assay Kit (BioVision) and NucView™ 488 Caspase-3 Enzyme Substrate (Biotium). In brief, after incubation with M199 media in the presence or absence of […] various PLY peptides, at 37° C., 5% CO2 for 1 hour, HUVECs were washed with PBS and fixed with fixation buffer on ice for 20 min. Cells were then soaked in 70% alcohol for 1 hr. After 2 times of wash by washing buffer, cells were incubated in DNA labeling solution for 60 min at 37° C. Cells were then treated with rinse buffer and incubated with antibody buffer for 30 min at room temperature. The cell nuclei were stained with propidium iodide for 30 min. Samples were observed by fluorescent microscopeand photographed charge-coupled device (CCD) camera.
# As to caspase-3 activity assay, after variant peptide treatments, HUVECs were washed by PBS. Cells were then reacted with Caspase-3 Enzyme Substrate 1 mM for 30 min at room temperature. Cells were then observed by fluorescent microscopeand photographed CCD camera.
# [6] = tested on: PMNs isolated from TLR4(−/−) mice C3H/HeJ; test: LPS-induced PMN transendothelial migration, PMNs from TLR4(-/-) C3H/HeJ mice; type: cell-based; conditions: LPS 1 μg/ml, HUVEC monolayer Transwell
# Procedure: as §1, with “Followed by hypotonic lysis to eliminate red blood cells, centrifugation and an additional wash were performed. The cells were then resuspended in Krebs-Ringer phosphate buffer (KRG; pH 7.3).” left out, “Uric acid injection into the peritoneal cavity gave a yield of 1 to 2×10^7 cells/mouse depending on time of incubation (4 hr). The levels of purity of the uric acid-induced PMN were 95% after 4 h postinjection.” left out, “The PMN from TLR4(−/−) C3H/HeJ mice and wild type C3H/HeN mice were then used for PMN transmigration Assay.” left out
# Neutrophils from human were isolated blood that was drawn in a syringe containing preservative-free heparin (20 U/ml final), and mixed with an equal volume of PBS containing 3% dextran and then incubated for 20 min at room temperature. […] The viability of the isolated neutrophils exceeded 95%, as determined by Trypan blue exclusion. […]
sequence,measurement,setting,value
QDLTAHFTTSIPLKGNVRNLSVKIRECTGLAWEWWRTVYEKTDLPLVRKRTISIWGTTLYPQVEDKVEND [C70PLY4],body weight,[1],significantly decreases
same,cell morphology of HUVEC,[2],did not affect the cell morphology
same,concentration at which MD2 protein is completely competed away,[3]; TLR4-coated well,6.25 µM
same,blocking capability for MD2 and TLR4 protein interaction (in words),[3]; peptide 50 μM to 3.05 nM,dose-dependent blocking capability
same,"PMNs migration, WT mice model (FIG. 10)","[4]; PMNs from C3H/HeN mice, LPS 1 μg/ml, HUVEC monolayer Transwell",significant inhibition of PMNs cell migration
same,LPS induced PMN migration (FIGS. 11-12),"[4]; WT mice model, LPS-induced",inhibitory effects
same,"apoptotic potential, caspase-3 activity assay",[5],no apoptotic potential
same,"PMNs migration, TLR4(−/−) mice model (FIG. 10)",[6],this phenomenon did not occur
